“And” between values parts separate entries of the source, which are not always exact repeats. Identical values can stand only once. Inconclusive results and toxic doses are left out. Residues, ends and D or L forms follow the SMILES beside them. *: point of attachment. Cbz = O=C(OCc1ccccc1)*; Bn = c1ccc(C*)cc1; βAla = NCCC(=O)O
System: CD2F1 mice, L1210 leukemia ip, survival T/C
Assay: NCI In Vivo Anticancer Drug Screen. Data for tumor model L1210 Leukemia (intraperitoneal) in CD2F1 (CDF1) mice
Settings: higher = longer survival
Summary of the method: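 Tumor-bearing mice (transplanted tumor) were split into treated and vehicle control groups, and the measured endpoint of each treated group was divided by that of its vehicle controls.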

Structure (SMILES): COC(=O)Nc1nc2ccc(C(=O)c3cccs3)cc2[nH]1
- T/C (endpoint: mean survival time, dose: 10.0 mg/kg/injection, schedule: Q04DX003 (ip), vehicle: Klucel (hydroxypropylcellulose) (HPC)): 105 % of control
- T/C (endpoint: mean survival time, dose: 10.0 mg/kg/injection, schedule: Q04DX003 (ip), vehicle: other): 107 % of control
- T/C (endpoint: mean survival time, dose: 20.0 mg/kg/injection, schedule: Q04DX003 (ip), vehicle: Klucel (hydroxypropylcellulose) (HPC)): 110 % of control
- T/C (endpoint: mean survival time, dose: 40.0 mg/kg/injection, schedule: Q04DX003 (ip), vehicle: Klucel (hydroxypropylcellulose) (HPC)): 120 % of control
- T/C (endpoint: mean survival time, dose: 40.0 mg/kg/injection, schedule: Q04DX003 (ip), vehicle: other): 110 % of control
- T/C (endpoint: mean survival time, dose: 60.0 mg/kg/injection, schedule: Q04DX003 (ip), vehicle: saline): 221 % of control
- T/C (endpoint: mean survival time, dose: 80.0 mg/kg/injection, schedule: Q04DX003 (ip), vehicle: Klucel (hydroxypropylcellulose) (HPC)): 98 % of control
- T/C (endpoint: mean survival time, dose: 90.0 mg/kg/injection, schedule: Q04DX003 (ip), vehicle: saline): 121 % of control

Structure (SMILES): CC/C=N/NC(N)=S
- T/C (endpoint: mean survival time, dose: 5.0 mg/kg/injection, schedule: Q01DX001 (ip), vehicle: saline): 98 % of control
- T/C (endpoint: mean survival time, dose: 10.0 mg/kg/injection, schedule: Q01DX001 (ip), vehicle: saline): 102 % of control
- T/C (endpoint: mean survival time, dose: 20.0 mg/kg/injection, schedule: Q01DX001 (ip), vehicle: saline): 106 % of control

Structure (SMILES): O=[N+]([O-])CC(OCCO)C(Cl)(Cl)Cl (stereo not given)
- T/C (endpoint: mean survival time, dose: 6.25 mg/kg/injection, schedule: Q01DX009 (ip), vehicle: acetone): 97 % of control
- T/C (endpoint: mean survival time, dose: 12.5 mg/kg/injection, schedule: Q01DX009 (ip), vehicle: acetone): 102 % of control
- T/C (endpoint: mean survival time, dose: 12.5 mg/kg/injection, schedule: Q04DX003 (ip), vehicle: acetone): 90 % of control
- T/C (endpoint: mean survival time, dose: 25.0 mg/kg/injection, schedule: Q01DX009 (ip), vehicle: acetone): 97 % of control
- T/C (endpoint: mean survival time, dose: 25.0 mg/kg/injection, schedule: Q04DX003 (ip), vehicle: acetone): 87 % of control

Structure (SMILES): O=P1(N(CCCl)CCCl)OCCC(OO)N1CCCl (stereo not given)
- T/C (endpoint: mean survival time, dose: 100.0 mg/kg/injection, schedule: Q01DX001 (ip), vehicle: DMSO): 268 % of control
- T/C (endpoint: mean survival time, dose: 100.0 mg/kg/injection, schedule: Q01DX001 (ip), vehicle: Klucel (hydroxypropylcellulose) (HPC)): 281 % of control
- T/C (endpoint: mean survival time, dose: 200.0 mg/kg/injection, schedule: Q01DX001 (ip), vehicle: Klucel (hydroxypropylcellulose) (HPC)): 309 % of control
- T/C (endpoint: mean survival time, dose: 400.0 mg/kg/injection, schedule: Q01DX001 (ip), vehicle: DMSO): 163 % of control

Structure (SMILES): O=C(Nc1ncccn1)Nc1cc([N+](=O)[O-])ccc1F
- T/C (endpoint: mean survival time, dose: 50.0 mg/kg/injection, schedule: Q01DX009 (ip), vehicle: Klucel (hydroxypropylcellulose) (HPC)): 93 % of control
- T/C (endpoint: mean survival time, dose: 100.0 mg/kg/injection, schedule: Q01DX009 (ip), vehicle: Klucel (hydroxypropylcellulose) (HPC)): 96 % of control
- T/C (endpoint: mean survival time, dose: 200.0 mg/kg/injection, schedule: Q01DX009 (ip), vehicle: Klucel (hydroxypropylcellulose) (HPC)): 98 % of control

Structure (SMILES): COc1cccc(C(=O)NC[n+]2cccc(O)c2)c1
- T/C (endpoint: mean survival time, dose: 100.0 mg/kg/injection, schedule: Q01DX001 (ip), vehicle: saline with Tween-80): 100 % of control
- T/C (endpoint: mean survival time, dose: 200.0 mg/kg/injection, schedule: Q01DX001 (ip), vehicle: saline with Tween-80): 92 % of control
- T/C (endpoint: mean survival time, dose: 400.0 mg/kg/injection, schedule: Q01DX001 (ip), vehicle: saline with Tween-80): 88 % of control

Structure (SMILES): CCOC(CNCc1cccc(OC)c1)OCC
- T/C (endpoint: mean survival time, dose: 100.0 mg/kg/injection, schedule: Q01DX001 (ip), vehicle: saline): 100 % of control
- T/C (endpoint: mean survival time, dose: 200.0 mg/kg/injection, schedule: Q01DX001 (ip), vehicle: saline): 100 % of control

Structure (SMILES): CC(C)(C)NC(=S)Nc1ccccc1
- T/C (endpoint: mean survival time, dose: 50.0 mg/kg/injection, schedule: Q04DX003 (ip), vehicle: saline with Tween-80): 100 % of control
- T/C (endpoint: mean survival time, dose: 100.0 mg/kg/injection, schedule: Q04DX003 (ip), vehicle: saline with Tween-80): 94 % of control
- T/C (endpoint: mean survival time, dose: 200.0 mg/kg/injection, schedule: Q04DX003 (ip), vehicle: saline with Tween-80): 91 % of control

Structure (SMILES): COC(=O)C(CSCc1ccccc1)NC(=O)C(CSCc1ccccc1)NC(=O)CCNC(=O)OCc1ccccc1 (stereo not given) ({Cbz-βAla}-Cys(Bn)-Cys(Bn)-OMe; configuration not given here)
- T/C (endpoint: mean survival time, dose: 25.0 mg/kg/injection, schedule: Q01DX005 (ip), vehicle: water): 103 % of control
- T/C (endpoint: mean survival time, dose: 50.0 mg/kg/injection, schedule: Q01DX005 (ip), vehicle: water): 98 % of control
- T/C (endpoint: mean survival time, dose: 100.0 mg/kg/injection, schedule: Q01DX005 (ip), vehicle: water): 106 % of control
- T/C (endpoint: mean survival time, dose: 200.0 mg/kg/injection, schedule: Q01DX005 (ip), vehicle: water): 103 % of control
- T/C (endpoint: mean survival time, dose: 400.0 mg/kg/injection, schedule: Q01DX005 (ip), vehicle: water): 105 % of control

Structure (SMILES): COc1cc(Cl)ccc1NC(=O)OCCOc1cccc(C)c1
- T/C (endpoint: mean survival time, dose: 50.0 mg/kg/injection, schedule: Q01DX009 (ip), vehicle: saline with Tween-80): 93 % of control
- T/C (endpoint: mean survival time, dose: 100.0 mg/kg/injection, schedule: Q01DX009 (ip), vehicle: saline with Tween-80): 101 % of control
- T/C (endpoint: mean survival time, dose: 200.0 mg/kg/injection, schedule: Q01DX009 (ip), vehicle: saline with Tween-80): 93 % of control

Structure (SMILES): O=c1n(CC2CO2)c(=O)n(CC2CO2)n1CC1CO1 (stereo not given)
- T/C (endpoint: median survival time, dose: 1.5 mg/kg/injection, schedule: Q01DX009 (ip), vehicle: saline): 113 % of control
- T/C (endpoint: median survival time, dose: 1.5 mg/kg/injection, schedule: Q03HX024 (ip), vehicle: saline): 121 % of control
- T/C (endpoint: median survival time, dose: 3.0 mg/kg/injection, schedule: Q03HX024 (ip), vehicle: saline): 195 % of control
- T/C (endpoint: median survival time, dose: 6.0 mg/kg/injection, schedule: Q01DX009 (ip), vehicle: saline): 182 % of control
- T/C (endpoint: median survival time, dose: 6.0 mg/kg/injection, schedule: Q03HX024 (ip), vehicle: saline): 253 % of control
- T/C (endpoint: median survival time, dose: 6.25 mg/kg/injection, schedule: Q01DX009 (ip), vehicle: saline): 168 % of control and 277 % of control
- T/C (endpoint: median survival time, dose: 7.5 mg/kg/injection, schedule: Q01DX003 (iv), vehicle: saline): 107 % of control
- T/C (endpoint: median survival time, dose: 7.5 mg/kg/injection, schedule: Q01DX005 (ip), vehicle: saline): 151 % of control
- T/C (endpoint: median survival time, dose: 10.0 mg/kg/injection, schedule: Q01DX005 (ip), vehicle: saline): 192 % of control
- T/C (endpoint: median survival time, dose: 12.0 mg/kg/injection, schedule: Q01DX009 (ip), vehicle: saline): 365 % of control
- T/C (endpoint: median survival time, dose: 12.0 mg/kg/injection, schedule: Q03HX008 (ip), vehicle: saline): 86 % of control
- T/C (endpoint: median survival time, dose: 12.0 mg/kg/injection, schedule: Q03HX024 (ip), vehicle: saline): 106 % of control
- T/C (endpoint: median survival time, dose: 12.5 mg/kg/injection, schedule: Q01DX009 (ip), vehicle: saline): 231 % of control and 277 % of control
- T/C (endpoint: median survival time, dose: 15.0 mg/kg/injection, schedule: Q01DX005 (ip), vehicle: saline): 210 % of control and 240 % of control
- T/C (endpoint: median survival time, dose: 15.0 mg/kg/injection, schedule: Q04DX003 (ip), vehicle: saline): 182 % of control
- T/C (endpoint: median survival time, dose: 15.0 mg/kg/injection, schedule: Q08DX002 (ip), vehicle: saline): 159 % of control
- T/C (endpoint: median survival time, dose: 24.0 mg/kg/injection, schedule: Q01DX009 (ip), vehicle: saline): 365 % of control
- T/C (endpoint: median survival time, dose: 25.0 mg/kg/injection, schedule: Q01DX001 (iv), vehicle: saline): 120 % of control
- T/C (endpoint: median survival time, dose: 25.0 mg/kg/injection, schedule: Q01DX009 (ip), vehicle: saline): 121 % of control and 277 % of control
- T/C (endpoint: median survival time, dose: 30.0 mg/kg/injection, schedule: Q01DX001 (ip), vehicle: saline): 195 % of control
- T/C (endpoint: median survival time, dose: 30.0 mg/kg/injection, schedule: Q01DX003 (iv), vehicle: saline): 171 % of control
- T/C (endpoint: median survival time, dose: 30.0 mg/kg/injection, schedule: Q01DX005 (ip), vehicle: saline): 92 % of control
- T/C (endpoint: median survival time, dose: 30.0 mg/kg/injection, schedule: Q04DX003 (ip), vehicle: saline): 731 % of control
- T/C (endpoint: median survival time, dose: 30.0 mg/kg/injection, schedule: Q08DX002 (ip), vehicle: saline): 198 % of control
- T/C (endpoint: median survival time, dose: 40.0 mg/kg/injection, schedule: Q01DX001 (ip), vehicle: saline): 186 % of control
- T/C (endpoint: median survival time, dose: 40.0 mg/kg/injection, schedule: Q04DX003 (ip), vehicle: saline): 292 % of control
- T/C (endpoint: median survival time, dose: 40.0 mg/kg/injection, schedule: Q08DX002 (ip), vehicle: saline): 256 % of control
- T/C (endpoint: median survival time, dose: 48.0 mg/kg/injection, schedule: Q01DX009 (ip), vehicle: saline): 106 % of control
- T/C (endpoint: median survival time, dose: 50.0 mg/kg/injection, schedule: Q01DX001 (iv), vehicle: saline): 157 % of control
- T/C (endpoint: median survival time, dose: 50.0 mg/kg/injection, schedule: Q08DX002 (ip), vehicle: saline): 731 % of control
- T/C (endpoint: median survival time, dose: 60.0 mg/kg/injection, schedule: Q01DX001 (ip), vehicle: saline): 731 % of control
- T/C (endpoint: median survival time, dose: 60.0 mg/kg/injection, schedule: Q01DX005 (oral), vehicle: saline): 182 % of control
- T/C (endpoint: median survival time, dose: 80.0 mg/kg/injection, schedule: Q01DX001 (ip), vehicle: saline): 97 % of control
- T/C (endpoint: median survival time, dose: 80.0 mg/kg/injection, schedule: Q01DX001 (iv), vehicle: saline): 89 % of control
- T/C (endpoint: median survival time, dose: 160.0 mg/kg/injection, schedule: Q01DX001 (oral), vehicle: saline): 175 % of control
- T/C (endpoint: median survival time, dose: 240.0 mg/kg/injection, schedule: Q01DX001 (oral), vehicle: saline): 97 % of control

— PubChem BioAssay AID256 (DTP/NCI, 2004)
